Experimental data as given in patent US20230338349A1, “LOW DOSE REGIMEN AND FORMULATION OF A 5-METHYL-1,2,4-OXADIAZOL-3-YL COMPOUND” (Eli Lilly and Company, priority 2020, published 2023).
Read-outs that look alike come from different tables or passages of the source.

Experiment: Single ascending dose study in healthy subjects, pharmacokinetics of compound of Formula I
Type: in vivo, human
Details: for concentration at 0.5 h / concentration at 1 h / concentration at 1.5 h / concentration at 2 h / concentration at 3 h / concentration at 4 h / concentration at 5 h / concentration at 6 h / concentration at 8 h / concentration at 12 h / concentration at 24 h / concentration at 48 h / Tmax / half-life / Cmax / CL renal / Vd/F: human, plasma; for concentration at 0.5 h / concentration at 1 h / concentration at 1.5 h / concentration at 2 h / concentration at 3 h / concentration at 4 h / concentration at 5 h / concentration at 6 h / concentration at 8 h / concentration at 12 h / concentration at 24 h / concentration at 48 h: mean; for Vd/F: read-out: Vz/F (apparent volume of distribution after oral administration)
Procedure: A Phase 1, single-center, subject- and investigator-blind, single-ascending dose, placebo-controlled, crossover, randomized study is performed to evaluate safety, tolerability, and pharmacokinetics (PK) of the compound of Formula I in healthy subjects. The study is conducted in 2 alternating cohorts (cohorts 1 and 2) in up to 3 study periods across 6 dose levels. Subjects are randomized to 1 of 3 treatment sequences in each cohort, with each sequence including 2 doses of compound of Formula I and 1 placebo dose over the 3 study periods in a complete crossover manner.
After an overnight fast of at least 8 hours, oral capsules are administered with approximately 240 mL of room-temperature water in the morning of each dosing day in a sitting position. Doses of 0.15 mg to 2 mg are administered as an oral solution of compound of Formula I via an oral dosing syringe with water similar to oral capsule dosing.
The capsules containing the compound of Formula I are prepared extemporaneously. Oral doses of 0.15 mg to 2 mg of the compound of Formula I are prepared extemporaneously as drug in solution. For any specific cohort/dosing period, the total number of capsules administered is the same for all subjects, regardless of whether assigned to placebo or the compound of Formula I. However, the number of capsules may vary between dosing periods and cohorts. This is similarly the case for extemporaneously prepared oral dosing solutions to maintain the blind. […] A matching volume of oral solution vehicle without compound of Formula I is used as placebo for the doses of 0.15 mg to 2 mg.
Venous blood samples of approximately 3 mL each are collected to determine the plasma concentrations of compound of Formula I. Concentrations of compound of Formula I are assayed using a validated liquid chromatography with tandem mass spectrometry method. PK parameter estimates for compound of Formula I are calculated using standard noncompartmental methods of analysis. Plasma concentrations of compound of Formula I are summarized by administered dose of compound of Formula I and the approximate time of PK blood sample collection. Following the procedure essentially as described above, PK data for a single ascending dose of the compound of Formula I in healthy subjects are set forth in Table 3 and Table 4.

[1] = single oral dose 0.6 mg, geometric mean (% CV)
[2] = single oral dose 2 mg, geometric mean (% CV)
[3] = single oral dose 5 mg, geometric mean (% CV)
[4] = single oral dose 10 mg, geometric mean (% CV)
[5] = single oral dose 16 mg, geometric mean (% CV)

## CC(=O)Nc1nc(F)c(CN2CC[C@H](OCc3noc(C)n3)C[C@@H]2C)s1 [compound of Formula I, N-[4-fluoro-5-[[(2S,4S)-2-methyl-4-[(5-methyl-1,2,4-oxadiazol-3-yl)methoxy]-1-piperidyl]methyl]thiazol-2-yl]acetamide]
0.6-mg to 16-mg dose range
  AUC(0-∞) dose proportionality: increase approximately dose-proportionally
  Cmax dose proportionality: increase approximately dose-proportionally
Single oral dose 0.15 mg
  concentration at 0.5 h: 0.271 ng/mL
  concentration at 1 h: 0.278 ng/mL
  concentration at 1.5 h: 0.246 ng/mL
  concentration at 2 h: 0.179 ng/mL
  concentration at 3 h: 0.161 ng/mL
Single oral dose 0.6 mg
  concentration at 0.5 h: 6.15 ng/mL
  concentration at 1 h: 6.25 ng/mL
  concentration at 1.5 h: 5.21 ng/mL
  concentration at 2 h: 4.84 ng/mL
  concentration at 3 h: 3.96 ng/mL
  concentration at 4 h: 3.6 ng/mL
  concentration at 5 h: 3.02 ng/mL
  concentration at 6 h: 2.35 ng/mL
  concentration at 8 h: 2.1 ng/mL
  concentration at 12 h: 1.09 ng/mL
  concentration at 24 h: 0.307 ng/mL
Single oral dose 2 mg
  concentration at 0.5 h: 16.2 ng/mL
  concentration at 1 h: 21.8 ng/mL
  concentration at 1.5 h: 19.5 ng/mL
  concentration at 2 h: 18.6 ng/mL
  concentration at 3 h: 15.3 ng/mL
  concentration at 4 h: 12.6 ng/mL
  concentration at 5 h: 10.5 ng/mL
  concentration at 6 h: 8.75 ng/mL
  concentration at 8 h: 7.09 ng/mL
  concentration at 12 h: 4.24 ng/mL
  concentration at 24 h: 1.34 ng/mL
Single oral dose 5 mg
  concentration at 0.5 h: 14.6 ng/mL
  concentration at 1 h: 58.9 ng/mL
  concentration at 1.5 h: 55.3 ng/mL
  concentration at 2 h: 50.3 ng/mL
  concentration at 3 h: 43.1 ng/mL
  concentration at 4 h: 36.5 ng/mL
  concentration at 5 h: 29.5 ng/mL
  concentration at 6 h: 24.8 ng/mL
  concentration at 8 h: 18.4 ng/mL
  concentration at 12 h: 9.74 ng/mL
  concentration at 24 h: 2.76 ng/mL
  concentration at 48 h: 0.634 ng/mL
Single oral dose 10 mg
  concentration at 0.5 h: 28.8 ng/mL
  concentration at 1 h: 122 ng/mL
  concentration at 1.5 h: 127 ng/mL
  concentration at 2 h: 125 ng/mL
  concentration at 3 h: 106 ng/mL
  concentration at 4 h: 100 ng/mL
  concentration at 5 h: 81.7 ng/mL
  concentration at 6 h: 72.3 ng/mL
  concentration at 8 h: 55.1 ng/mL
  concentration at 12 h: 32.7 ng/mL
  concentration at 24 h: 11 ng/mL
  concentration at 48 h: 2.28 ng/mL
Single oral dose 16 mg
  concentration at 0.5 h: 59.7 ng/mL
  concentration at 1 h: 150 ng/mL
  concentration at 1.5 h: 183 ng/mL
  concentration at 2 h: 187 ng/mL
  concentration at 3 h: 153 ng/mL
  concentration at 4 h: 127 ng/mL
  concentration at 5 h: 100 ng/mL
  concentration at 6 h: 88 ng/mL
  concentration at 8 h: 63 ng/mL
  concentration at 12 h: 32.2 ng/mL
  concentration at 24 h: 6.83 ng/mL
  concentration at 48 h: 0.828 ng/mL
oral, summary over the single ascending doses, read-out: median tmax
  Tmax: ~1 h
oral, summary over the single ascending doses, read-out: t1/2 (converted)
  half-life: ~6 h
Single oral dose 0.15 mg, geometric mean (% CV)
  Cmax: 0.318 ng/mL
Single oral dose 0.15 mg, median, read-out: tmax
  Tmax: 1.02 h
[1]
  Cmax: 6.61 ng/mL
  Vd/F: 120 L
  AUC(0-∞): 44.0 (33) ngxh/mL
  Ae0-24 (amount excreted in urine up to 24 hours postdose): 0.048 (53%) mg
  CL/F (apparent clearance calculated after oral administration): 13.6 (33) L/h
Single oral dose 0.6 mg, geometric mean (% CV), read-out: CLr (renal clearance) (converted)
  CL renal: 19.5 mL/min
Single oral dose 0.6 mg, geometric mean, read-out: t1/2 (terminal half-life) (converted)
  half-life: 6.08 h
Single oral dose 0.6 mg, median, read-out: tmax
  Tmax: 1 h
[2]
  Cmax: 20.9 ng/mL
  Vd/F: 119 L
  AUC(0-∞): 133 (88) ngxh/mL
  Ae0-24 (amount excreted in urine up to 24 hours postdose): 0.155 (57%) mg
  CL/F (apparent clearance calculated after oral administration): 15.1 (88) L/h
Single oral dose 2 mg, geometric mean (% CV), read-out: CLr (renal clearance) (converted)
  CL renal: 20.8 mL/min
Single oral dose 2 mg, geometric mean, read-out: t1/2 (terminal half-life) (converted)
  half-life: 5.48 h
Single oral dose 2 mg, median, read-out: tmax
  Tmax: 1.25 h
[3]
  Cmax: 59.1 ng/mL
  Vd/F: 114 L
  AUC(0-∞): 396 (39) ngxh/mL
  Ae0-24 (amount excreted in urine up to 24 hours postdose): 0.436 (57%) mg
  CL/F (apparent clearance calculated after oral administration): 12.6 (39) L/h
Single oral dose 5 mg, geometric mean (% CV), read-out: CLr (renal clearance) (converted)
  CL renal: 19.7 mL/min
Single oral dose 5 mg, geometric mean, read-out: t1/2 (terminal half-life) (converted)
  half-life: 6.23 h
Single oral dose 5 mg, median, read-out: tmax
  Tmax: 1.02 h
[4]
  Cmax: 134 ng/mL
  Vd/F: 104 L
  AUC(0-∞): 1220 (28) ngxh/mL
  Ae0-24 (amount excreted in urine up to 24 hours postdose): 1.3 (30%) mg
  CL/F (apparent clearance calculated after oral administration): 8.20 (28) L/h
Single oral dose 10 mg, geometric mean (% CV), read-out: CLr (renal clearance) (converted)
  CL renal: 20.3 mL/min
Single oral dose 10 mg, geometric mean, read-out: t1/2 (terminal half-life) (converted)
  half-life: 8.82 h
Single oral dose 10 mg, median, read-out: tmax
  Tmax: 1.5 h
[5]
  Cmax: 199 ng/mL
  Vd/F: 102 L
  AUC(0-∞): 1340 (19) ngxh/mL
  Ae0-24 (amount excreted in urine up to 24 hours postdose): 1.14 (36%) mg
  CL/F (apparent clearance calculated after oral administration): 11.9 (19) L/h
Single oral dose 16 mg, geometric mean (% CV), N = 3, read-out: CLr (renal clearance) (converted)
  CL renal: 16 mL/min
Single oral dose 16 mg, geometric mean, read-out: t1/2 (terminal half-life) (converted)
  half-life: 5.92 h
Single oral dose 16 mg, median, read-out: tmax
  Tmax: 1.98 h
Single oral dose 0.15 mg, geometric mean, N=5
  Ae0-24 (amount excreted in urine up to 24 hours postdose): 0.003 mg
